Consider five molecules from paper PMC12843386, “Ly6/uPAR Protein from Asterias rubens Starfish Stimulates Migration and Invasion of Human Epithelial and Immune Cells” (Marine Drugs, 2025).

Read-outs that look alike come from different tables or passages of the source. Bridges are numbered along the chain shown (N, C = ends). Where no end group is shown, it is not given here.

A short description of assay [1]: ELISA binding to immobilized membrane fraction of A. rubens arm tip. The arrangement: species or system Asterias rubens. The conditions noted are these: detection by anti-Lystar5 serum, n = 4 (Figure 3b). From the text:
Figure 2 Design of the peptides mimicking the loop and “head” regions of Lystar5 and ELISA experiments. (a) Amino acid sequence alignment of Lystar5 and the peptides: loop I (rose), loop II (orange), loop III (blue), and head (green). Cys residues are shown in gold. Disulfide bonds are shown in brackets. Sequences of the peptides are highlighted by colors corresponding to the Lystar5 loops. The amino acids changed to increase the peptides’ stability are designated by lowercase letters. (b) Spatial structure of Lystar5 predicted from the sequence using ESMFold with regions corresponding to the synthesized peptides colored as shown in panel (a,c). Design of ELISA experiments for proof of detection of Lystar5 and the peptides by the anti-Lystar5 serum of immunized mice (left), identification of the active site of Lystar5, and evaluation of the interaction of Lystar5 and the peptides using the immobilized membrane fraction of different A. rubens tissues (center), and study of complex formation between nAChR and integrin subunits in HaCAT keratinocytes (right). […] Recombinant analogue of Lynx2 was used as a negative control. […] Bound compounds were detected by the anti-Lystar5 serum of immunized mouse. […]
Background: ELISA stands for enzyme-linked immunosorbent assay.

For the next assay, the system named is HaCaT keratinocytes. The experiment in a line: Wound-healing (scratch) assay, collective migration of HaCaT keratinocytes. Format: cell-based, human. The conditions noted are these: 10 µM peptide, 24 h, serum-free; % of untreated control; n = 14 (Figure 4a,b). As for the experimental part:
Human HaCaT keratinocytes (ATCC, Manassas, VA, USA) were grown (37 °C, 8% CO2) in a DME medium with phenol red (PanEco, Moscow, Russia), 10% fetal calf serum (Thermo Fisher Scientific, Waltham, […], USA), and 2 mM L-glutamine (PanEco). Human peripheral blood monocytes were isolated from human donors’ blood (informed written consent was obtained from the donors) with Lymphosep media (MP Biomedicals, Irvine, CA, USA) and cultivated in RPMI-1640 medium with phenol red (PanEco, Russia), 10% fetal calf serum (Thermo Fisher Scientific), and 2 mM L-glutamine (PanEco). All cells were routinely tested for the absence of mycoplasma contamination (Mycoreport kit, Evrogen, Moscow, Russia).
The in vitro wound healing (scratch) assay was performed as described in [35]. In brief, HaCaT cells were seeded in 96-well cell culture plates (5 × 10^4 cells/well) and grown for 24 h. […] Pictures were analyzed after 0 and 24 h at 20× magnification at CloneSelect Imager (Molecular Devices, San Jose, CA, USA). The center of the plate was marked as a central reference point to ensure that the same area was recorded during the time course. Digital images were taken, and the scratch area was quantified using ImageJ 1.54f software (NIH, Bethesda, MD, USA) and MS Excel 365 (Microsoft, Redmond, WA, USA) software by measuring the % of the scratch surface occupied by migrating cells.

For assay [2] the following is noted: cited from earlier work. From the text: Ly6/uPAR proteins from different organisms are currently being considered as prototypes for new drugs.

On to “VLKTCTSRQDRCG (disulfide 5-12 (inferred)) [head, C-amidated peptide mimicking the "head" region of Lystar5: […]]”, for which the “binding to the immobilized membrane fraction of the arm tip” value in assay [1] is recorded as “neither Lystar5 nor its loops or “head” bound”. For the same molecule, in the assay on HaCaT keratinocytes, the “collective migration of HaCaT keratinocytes (scratch assay), wound closure” value is given as “did not affect the collective migration”.
With “GEDGCTAATTQLGKRYFADKSRPAWGAVECG (disulfide 5-30 (inferred)) [loop III, C-amidated peptide mimicking loop III of Lystar5: […]]”, in the assay with HaCaT keratinocytes, the “collective migration of HaCaT keratinocytes (scratch assay), wound closure” value is “did not affect the collective migration”.
With α-cobratoxin, the anti-cancer activity result in assay [2] (snake toxin from Naja kaouthia, ref [45]) was “effective anti-cancer agents”.

B1: SLURP-1: human-secreted epithelial protein SLURP-1 (protein, UniProt P55000 23-103, looked up)
Secreted Ly-6/uPAR-related …: LKCYTCKEPMTSASCRTITRCKPEDTACMTTLVTVEAEYPFNQSPVVTRSCSSSCVATDPDSIGAAHLIFCCFRDLCNSEL
B1: the anti-cancer activity result in assay [2] (human-secreted epithelial protein, ref [46]) is listed as “effective anti-cancer agents”.

B2: Lynx1: human protein Lynx1 found in the nervous system, skin, and lungs (protein, UniProt P0DP58 21-91, looked up)
Ly-6/neurotoxin-like protein 1: LDCHVCAYNGDNCFNPMRCPAMVAYCMTTRTYYTPTRMKVSKSCVPRCFETVYDGYSKHASTTSCCQYDLC
In the case of B2, the anti-cancer activity result in assay [2] (human protein found in the nervous system, skin, and lungs, ref [47],[48]) is recorded as “effective anti-cancer agents”. For the same molecule, in assay [2] (ref [49]), the “cognitive dysfunctions related to the cholinergic system decline” value is given as “ameliorates cognitive dysfunctions”.
